Measured values as given in patent US20080045494A1, “Pyridine Analogues VI” (ASTRAZENECA AB, priority 2006, published 2008).

Biological target: T1, P2Y12 receptor (Homo sapiens, UniProt Q9H244)
T1 construct: expressed in transfected cells; host or cells: CHO cells (membranes)
Assay: Functional inhibition of 2-Me-S-ADP induced P2Y12 signalling (35S-GTPγS, membranes from P2Y12 transfected CHO-cells)
Assay type: biochemical
Details: EC80 concentration of agonist 2-methyl-thio-adenosine diphosphate; 30° C., 45 min
Experimental: Functional inhibition of the P2Y12 receptor can be measured by in vitro assays using cell membranes from P2Y12 transfected CHO-cells, the methodology is indicated below.
Functional inhibition of 2-Me—S-ADP induced P2Y12 signalling: 5 μg of membranes were diluted in 200 μl of 200 mM NaCl, 1 mM MgCl2, 50 mM HEPES (pH 7.4), 0.01% BSA, 30 μg/ml saponin and 10 μM GDP. To this was added an EC80 concentration of agonist (2-methyl-thio-adenosine diphosphate), the required concentration of test compound and 0.1 μCi ^35S-GTPγS. The reaction was allowed to proceed at 30° C. for 45 min. Samples were then transferred on to GF/B filters using a cell harvester and washed with wash buffer (50 mM Tris (pH 7.4), 5 mM MgCl2, 50 mM NaCl). Filters were then covered with scintillant and counted for the amount of ^35S-GTPγS retained by the filter. Maximum activity was that determined in the presence of the agonist and minimum activity in the absence of the agonist following subtraction of the value determined for non-specific activity. The effect of compounds at various concentrations was plotted according to the equation: […]
y=A+((B−A)/(1+((C/x)̂D)))
A is the bottom plateau of the curve i.e. the final minimum y value
B is the top of the plateau of the curve i.e. the final maximum y value
C is the x value at the middle of the curve. This represents the log EC50 value when A+B=100 […]

T1 sequence (Q9H244 whole entry): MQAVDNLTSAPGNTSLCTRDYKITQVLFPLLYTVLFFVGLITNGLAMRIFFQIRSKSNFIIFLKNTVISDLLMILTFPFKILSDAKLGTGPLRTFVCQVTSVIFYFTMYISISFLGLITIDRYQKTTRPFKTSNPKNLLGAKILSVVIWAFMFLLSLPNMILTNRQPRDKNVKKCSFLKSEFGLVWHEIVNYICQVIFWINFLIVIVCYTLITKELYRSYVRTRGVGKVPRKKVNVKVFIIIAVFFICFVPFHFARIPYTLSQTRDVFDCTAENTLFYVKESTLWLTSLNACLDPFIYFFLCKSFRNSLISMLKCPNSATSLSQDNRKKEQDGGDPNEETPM

| IC50 [nM] | Compound |
| --- | --- |
| 240 | CCOC(=O)c1cc(C#N)c(NCC(=O)NS(=O)(=O)CCc2ccccc2)nc1C(F)(F)F [Example 6, Ethyl 5-cyano-6-[(2-oxo-2-{[(2-phenylethyl)sulfonyl]amino}ethyl)amino]-2-(trifluoromethyl)nicotinate] |
| 810 | Ethyl 6-{[3-({[(5-chloro-2-thienyl)sulfonyl]amino}carbonyl)cyclopentyl]amino}-5-cyano-1-(trifluoromethyl)nicotinate [Example 3] |
